From patent publication EP4813381A1, “PHARMACEUTICAL USE OF GUAIANE SESQUITERPENE DERIVATIVE” (Nanjing University Of Chinese Medicine, priority 2023, dated 2025) come the findings set out here.

The structures appear in SMILES notation. In brackets after ≈: the same amount, converted by molar mass.

One data set has as its system MDSCs. As to the kind of experiment: Inhibition of MDSC chemotaxis (Transwell, Hepa1-6 tumor-conditioned medium). The note with it: 12 h treatment, 24 h Transwell. The data set is classed as cell-based, mice. How it is done:
Hepa1-6 mouse hepatocellular carcinoma cells were uniformly seeded into 6-well plates. After cells reached confluence, supernatant was aspirated, and 1-1.5 mL fresh medium was added to each well. Following 24 h culture, supernatant was collected, centrifuged at 1600 rpm for 5 min, aspirated, and filtered through a 0.22 µm membrane to obtain tumor-conditioned medium for subsequent use. Euthanize mice by cervical dislocation and immerse in 75% ethanol solution for 5 min. Under sterile conditions, remove the tibia, cut both ends of the bone, and aspirate the bone marrow into a 1 mL syringe. Repeat flushing into a 15 mL centrifuge tube. Centrifuge at 1600 rpm for 5 min to collect bone marrow cells. Wash twice with 1×PBS. Resuspend cells in complete RPMI 1640 medium containing cytokines GM-CSF (10 ng/mL) and IL-4 (10 ng/mL) to stimulate differentiation into MDSCs. Count cells, adjust density to 1×10^6 cells/mL, and uniformly seed into 24-well plates at 300 µL per well. […] Centrifuge at 1600 rpm for 5 min, remove supernatant, resuspend cells in 300 µL fresh medium, and place into Transwell chambers. Add 600 µL normal medium (control group) or tumor-conditioned medium (model group) to the lower chamber. Co-culture for 24 h.

The next data set relates to CCR2 mRNA. As to the kind of experiment: CCR2 mRNA level in MDSCs (PCR). To be noted: CCR2 mRNA levels in MDSCs, 2 h. The data set is classed as cell-based, mice. As to the method:
Mice were euthanized by cervical dislocation and immersed in 75% ethanol solution for 5 min. Under sterile conditions, the tibia was removed, both ends of the bone were cut, and bone marrow was repeatedly flushed into a 15 mL centrifuge tube using a 1 mL syringe filled with culture medium. Centrifuge at 1600 rpm for 5 min to collect bone marrow cells. Wash twice with 1×PBS, then resuspend in RPMI 1640 complete medium containing GM-CSF (10 ng/mL) + IL-4 (10 ng/mL) and transfer to a cell culture dish to stimulate differentiation of bone marrow cells into MDSCs. Count cells and adjust density to 1 × 10^6 cells/mL in complete medium. Seed cells uniformly into 6-well plates at 2 mL per well. […] After incubation, collect cells into centrifuge tubes, centrifuge at 1600 rpm for 5 min, wash once with 1×PBS, and add 500 µL RNA extraction reagent to each tube. After centrifugation to obtain the pellet, add 20 µL DEPC-treated water to each tube to dissolve the pellet. Determine RNA concentration and reverse transcribe to cDNA. Add the cDNA, primers, and reverse transcriptase to a 96-well plate. Centrifuge at 4000 rpm for 5 min, then place in a PCR instrument for detection.

The nature of another data set: physchem. The note with it: water, 37 °C, thermodynamic from solid.
The test system of data set [1] is fibrosis-related factors (Acta2, Col1a1, Tgfb1). As to the kind of experiment: CCl4 acute liver injury model in mice: Q-PCR of fibrosis-related factors in liver. The format is in vivo, C57BL/6 mice. The note with it: liver mRNA, 200 mg/kg. As to the method: They were acclimated for 7 days before use in experiments. • Experimental Methods: Establishment of Acute Liver Injury Model in Mice and Group-Specific Drug Administration • Mice were randomly assigned to groups. One group was arbitrarily designated as the normal group, while the remaining groups served as model group, Compound 1 group, Hydrochloride 20 group, Fumarate 21 group, and Silibinin group, with 6 mice per group. Except for the normal group receiving 10 mL olive oil/kg via injection, all other mice received 0.5 mL CCl4 + 9.5 mL olive oil/kg body weight via intraperitoneal injection, maintaining a CCl4 to olive oil ratio of 1:19. Starting from day 1 of modeling, Compound 1, Hydrochloride 20, and Fumarate 21 were administered orally for 3 consecutive days. […] The blood was allowed to stand at room temperature for 2 hours, then centrifuged at 3000 rpm for 20 minutes. Serum was aspirated, aliquoted, and stored at -70 °C for future use. After blood collection, euthanize mice by cervical dislocation. Perform laparotomy to remove the liver. Rinse twice with pre-chilled PBS. Excise the left hepatic lobe tissue. […] Store remaining tissue at -70 °C for future use. • Serum AST and ALT Assay: Use 10 µL of each sample for testing. Determine mouse serum AST and ALT levels according to the operating manual. Measure absorbance at 510 nm using an enzyme-linked immunosorbent assay (ELISA) reader. Calculate sample concentration (U/L) based on the standard curve.
Q-PCR Analysis: Tissue total RNA extraction, cDNA synthesis, and PCR amplification methods are identical to Example 4. Additional primer information is as follows:
Data Statistics: All data are expressed as means ± standard error of the mean (S.E.M.). Differences were analyzed for significance using analysis of variance (ANOVA). For groups showing significant differences in ANOVA, one-way ANOVA followed by Dunnett's test was performed to compare intergroup differences.

Data set [2] concerns CCl4-induced liver injury. As to the kind of experiment: CCl4 acute liver injury model in mice: serum ALT and AST. The format is in vivo, C57BL/6 mice. The note with it: 200 mg/kg (method: U/L). An excerpt:
The drug of the present invention, prepared according to Example 2; Silybin, Shanghai Yuanye Biotechnology Co., Ltd.; Olive oil, Beijing […] Olive Oil Development Center; Analytical grade carbon tetrachloride (CCl4), Shantou Xilong Chemical Factory; Sodium carboxymethyl cellulose (CMC-Na), Guangdong Shantou Xilong Chemical Factory; RNA Isolater Total RNA Extraction Reagent, […] RT Supermix for qPCR, Nanjing Vazyme Biotech Co., Ltd.; AceQ qPCR SYBR Green Master Mix, Shanghai Yeasen Biotechnology Co., Ltd.; Aspartate Transaminase (AST/GOT) Colorimetric Test Kit, Alanine Transaminase (ALT/GPT) Colorimetric Test Kit, Wuhan Elabscience Biotechnology Co., Ltd. • Experimental animals: […] SCXK(Su)2019-002. […] They were acclimated for 7 days before use in experiments. • Experimental Methods: Establishment of Acute Liver Injury Model in Mice and Group-Specific Drug Administration • Mice were randomly assigned to groups. […] One hour after the final drug administration, blood was collected from the retinal venous plexus. […] Serum was aspirated, aliquoted, and stored at -70 °C for future use. After blood collection, euthanize mice by cervical dislocation. Perform laparotomy to remove the liver. Rinse twice with pre-chilled PBS. Excise the left hepatic lobe tissue. […] Store remaining tissue at -70 °C for future use. • Serum AST and ALT Assay: Use 10 μL of each sample for testing. Determine mouse serum AST and ALT levels according to the operating manual. Measure absorbance at 510 nm using an enzyme-linked immunosorbent assay (ELISA) reader. Calculate sample concentration (U/L) based on the standard curve. Data Statistics: All data are expressed as means ± standard error of the mean (S.E.M.). Differences were analyzed for significance using analysis of variance (ANOVA). For groups showing significant differences in ANOVA, one-way ANOVA followed by Dunnett's test was performed to compare intergroup differences.

For data set [3], the system named is inflammatory factors (TNF, IL-6, IL-1). As to the kind of experiment: Lupus nephritis MRL/lpr mice: Q-PCR of renal inflammatory factors. The data set is classed as in vivo. The note with it: kidney mRNA, oral 30 mg/kg, 8 weeks. How it is done:
Production license number: SCXK(Su)2023-0009. […] They were acclimated for 7 days before use in experiments.
Oral administration was performed continuously for 8 weeks.
Allow blood to stand at room temperature for 2 hours, then centrifuge at 3000 rpm for 20 minutes. Aspirate the serum, aliquot it, and store at -70 °C for future use. After blood collection, euthanize mice by cervical dislocation. Open the abdominal cavity, remove kidneys, and dissect out perirenal fat and capsules. […] Store remaining tissues at -70 °C for future use.
Additional primer information is as follows: Table 19. Q-PCR Primer Information

For a further data set, the system named is lupus nephritis. As to the kind of experiment: Lupus nephritis MRL/lpr mice: urinary protein, Scr, BUN, urinary Kim-1 and β-MG. The format is in vivo. Also on record: Scr / BUN / Kim-1 / β-MG: unit not given here. The note with it: oral 30 mg/kg, 8 weeks. As to the method:
RT Supermix for qPCR, Nanjing Vazyme Biotech Co., Ltd.; Urea Colorimetric Test Kit, Creatinine Colorimetric Test Kit, Nanjing Jiancheng Biotechnology Co., Ltd.; Urinary Kim-1 and β-MG Content ELISA Kits, Abcam. • Experimental animals: MRL/MpJ and MRL/lpr mice, female, 10 weeks old, purchased from GemPharmatech LLC. Production license number: SCXK(Su)2023-0009. […] They were acclimated for 7 days before use in experiments. […] Oral administration was performed continuously for 8 weeks. […] Aspirate the serum, aliquot it, and store at -70 °C for future use. After blood collection, euthanize mice by cervical dislocation. Open the abdominal cavity, remove kidneys, and dissect out perirenal fat and capsules. […] Store remaining tissues at -70 °C for future use. Serum Creatinine (Scr) and Blood Urea Nitrogen (BUN) Assay: […] Samples were added sequentially strictly according to the kit instructions, incubated at 37 °C, and measured for absorbance values using an enzyme-linked immunosorbent assay (ELISA) reader. The concentration levels of each indicator were calculated based on the standard curve.

Consider `C=C1C(=O)O[C@H]2[C@H]1CCC(C)=C1CC[C@@](C)(OC(=O)N3CCCCC3)[C@@H]12` [compound 83], for which the “Suppression Rate (%)” value with MDSCs (1 µM) was determined as 29.4%; in the data set with MDSCs (10 µM) it was 75.9%. Also, the figures for the “CCR2 mRNA suppression rate in MDSCs (%)” value in the data set on CCR2 mRNA (1 µM) and in the data set on CCR2 mRNA (10 µM) were 17.0% and 70.0%, respectively. For the same compound, the concentration in solution in the data set “physchem” (solubility) was 0.152 mg/mL (≈ 423 µM).
In data set [1], `COc1cc(C2Oc3cc([C@H]4Oc5cc(O)cc(O)c5C(=O)[C@@H]4O)ccc3OC2CO)ccc1O` (stereo partly drawn) [Silybin, reference compound] came in with an Acta2 of 2.91±0.48, a Col1a1 of 1.84±0.17 and a Tgfb1 of 1.11±0.08. In data set [2], this compound returned an ALT of 121.58±15.45 and an AST of 301.45±38.44.
On to `CC(C)(O)c1coc(S(=O)(=O)NC(=O)Nc2c3c(cc4c2CCC4)CCC3)c1` [MCC950, reference compound], for which, in data set [3], the Il1 is listed as 5.43±0.71, the Il6 turned out to be 9.52±0.84 and the Tnf was 4.33±0.52. Further, the “24-hour urine protein level” value in the data set on lupus nephritis came out at 0.89±0.11. In the data set with lupus nephritis (serum), the BUN is recorded as 12.08±2.01 and the Scr came out at 22.18±3.41. Moreover, in the data set on lupus nephritis (urine), the Kim-1 is listed as 0.53±0.06 and the β-MG came out at 15.41±0.39.
